# Data reported in patent publication US20260365647A1, “AKT1 MODULATORS” (Alterome Therapeutics, Inc., priority 2022, published 2026).
# Biological target: T1, AKT1-E17K (Homo sapiens, UniProt P31749, E17K)
# T1 construct: host or cells: HEK-293 (ATCC CRL-1573)
# Assay: NanoBRET Target Engagement (TE) Assay
# Format: cell-based
# From the text: The NanoBRET™ Target Engagement (TE) Intracellular Kinase Assays are based on the NanoBRET™ System (Promega Corporation), an energy transfer technique designed to measure molecular proximity in living cells. The NanoBRET™ TE Assays measure the apparent affinity of test compounds by competitive displacement of the NanoBRET™ tracer compound, which is a cell permeable molecule engineered to be reversibly bound to a NanoLuc® luciferase-kinase fusion expressed in cells. For compound screening, when a test compound binds to the selected kinase, the BRET signal is attenuated. […] All cells were evaluated for viability prior to transfection and optimization of the transfection was done prior to experimentation. […] Following transfection, cells were washed and resuspended in Opti-MEM. NanoBRET assays were performed in white, 384-well plates (Corning) at a density of […]. All example compounds were prepared as concentrated stock solutions in DMSO (Sigma-Aldrich). Compounds are dissolved in DMSO to make 10 mM stock solution. […] A Labcyte ECHO 550 compound dispenser was used to facilitate compound transfer directly to cells. Cells were equilibrated for 2 hr with energy transfer probes and example compound prior to BRET measurements. […] For target engagement analysis, the energy transfer probes were added to the cells at concentrations optimized for the target in question (AKT E17K). Following compound incubation, NanoBRET NanoGlo Substrate (Promega Cat #N157D) and Extracellular Nanoluc Inhibitor (Promega Cat #N235C) was added according to the manufacturer's recommended protocol, and luminescence was measured on Envision Reader (Perkin Elmer) Multimode Luminometer equipped with 450 nmBPfilter (donor) and 600 nmLPfilter (acceptor), using 0.5 s integration time. Milli-BRET units (mBU) are calculated by multiplying the raw BRET values by 1000. Apparent tracer affinity values (EC50) were determined using the sigmoidal dose-response (variable slope). Competitive displacement data were then plotted and data were fit to determine the EC50 value for each example compound.
# T1 sequence (P31749 whole entry E17K): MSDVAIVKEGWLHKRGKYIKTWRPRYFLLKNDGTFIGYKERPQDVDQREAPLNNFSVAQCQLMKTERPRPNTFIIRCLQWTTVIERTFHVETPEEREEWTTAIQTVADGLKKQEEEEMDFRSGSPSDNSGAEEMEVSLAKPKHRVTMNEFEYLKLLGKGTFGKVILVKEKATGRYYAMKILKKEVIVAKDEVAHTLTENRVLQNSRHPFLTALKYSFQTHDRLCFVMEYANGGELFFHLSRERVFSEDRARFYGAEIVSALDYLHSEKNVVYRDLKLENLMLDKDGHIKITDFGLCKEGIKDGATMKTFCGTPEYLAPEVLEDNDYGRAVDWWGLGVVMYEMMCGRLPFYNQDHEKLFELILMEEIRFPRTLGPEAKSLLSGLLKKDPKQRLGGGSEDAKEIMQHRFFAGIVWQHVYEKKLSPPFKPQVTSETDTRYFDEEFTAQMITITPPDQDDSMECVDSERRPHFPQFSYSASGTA
row,Structure (SMILES),IC50 [nM]
1,"CN(c1ccc(C=O)c(O)c1)C1CCN(Cc2ccc(-n3c(-c4cccnc4N)nc4ccc(-c5ccccc5)nc43)cc2)CC1 [Example 57, 4-((1-(4-(2-(2-Aminopyridin-3-yl)-5-phenyl-3H-imidazo[4,5-b]pyridin-3-yl)benzyl)piperidin-4-yl)(methyl)amino)-2-hydroxybenzaldehyde]",60 to 600
2,"Nc1ncccc1-c1nc2ccc(-c3ccccc3)nc2n1-c1ccc(CN2CC3CCC(C2)N3C(=O)c2ccc(C=O)c(O)c2)cc1 [Example 109, 4-(3-(4-(2-(2-Aminopyridin-3-yl)-5-phenyl-3H-imidazo[4,5-b]pyridin-3-yl)benzyl)-3,8-diazabicyclo[3.2.1]octane-8-carbonyl)-2-hydroxybenzaldehyde]",> 600
3,"Nc1ncccc1-c1nc2ccc(-c3ccccc3)nc2n1-c1ccc(CN2CCC(Oc3ccc(C=O)c(O)c3)CC2)cc1 [Example 129, 4-((1-(4-(2-(2-Aminopyridin-3-yl)-5-phenyl-3H-imidazo[4,5-b]pyridin-3-yl)benzyl)piperidin-4-yl)oxy)-2-hydroxybenzaldehyde]",15 to 60
4,"Nc1ncccc1-c1nc2ccc(-c3ccccc3)nc2n1-c1ccc(CN2CCC3(CC2)CN(c2ccc(C=O)c(O)c2)C3)cc1 [Example 73, 4-(7-(4-(2-(2-Aminopyridin-3-yl)-5-phenyl-3H-imidazo[4,5-b]pyridin-3-yl)benzyl)-2,7-diazaspiro[3.5]nonan-2-yl)-2-hydroxybenzaldehyde]",60 to 600
5,"Nc1ncccc1-c1nc2ccc(-c3ccccc3)nc2n1-c1ccc(CN2CC(NC(=O)c3ccc(O)c(C=O)c3)C2)cc1 [Example 61, N-(1-(4-(2-(2-Aminopyridin-3-yl)-5-phenyl-3H-imidazo[4,5-b]pyridin-3-yl)benzyl)azetidin-3-yl)-3-formyl-4-hydroxybenzamide]",15 to 60
6,"Nc1ncccc1-c1nc2ccc(-c3ccccc3)nc2n1-c1ccc(CN2CCC3(CCCN(C(=O)c4ccc(C=O)c(O)c4)C3)C2)cc1 (centres unmarked) [Example 87, 4-(2-(4-(2-(2-Aminopyridin-3-yl)-5-phenyl-3H-imidazo[4,5-b]pyridin-3-yl)benzyl)-2,7-diazaspiro[4.5]decane-7-carbonyl)-2-hydroxybenzaldehyde]",60 to 600
7,"Nc1ncccc1-c1nc2ccc(-c3ccccc3)nc2n1-c1ccc(CN2CCC3(C2)CN(c2ccc(C=O)c(O)c2)C3)cc1 [Example 79, 4-(6-(4-(2-(2-Aminopyridin-3-yl)-5-phenyl-3H-imidazo[4,5-b]pyridin-3-yl)benzyl)-2,6-diazaspiro[3.4]octan-2-yl)-2-hydroxybenzaldehyde]",15 to 60
8,"Nc1ncccc1-c1nc2ccc(-c3ccccc3Cl)nc2n1-c1ccc(CN2CCN(c3ccc(C=O)c(O)c3)CC2)cc1 [Example 145, 4-(4-(4-(2-(2-Aminopyridin-3-yl)-5-(2-chlorophenyl)-3H-imidazo[4,5-b]pyridin-3-yl)benzyl)piperazin-1-yl)-2-hydroxybenzaldehyde]",60 to 600
9,"Nc1ncccc1-c1nc2ccc(-c3ccccc3)nc2n1-c1ccc(CN2CCC[C@@H](NC(=O)c3ccc(C=O)c(O)c3)C2)cc1 [Example 63, (R)—N-(1-(4-(2-(2-Aminopyridin-3-yl)-5-phenyl-3H-imidazo[4,5-b]pyridin-3-yl)benzyl)piperidin-3-yl)-4-formyl-3-hydroxybenzamide]",60 to 600
10,"Nc1ncccc1-c1nc2ccc(-c3ccccc3)nc2n1-c1ccc(CN2CCCC(NC(=O)c3ccc(O)c(C=O)c3)CC2)cc1 (centres unmarked) [Example 115, N-(1-(4-(2-(2-Aminopyridin-3-yl)-5-phenyl-3H-imidazo[4,5-b]pyridin-3-yl)benzyl)azepan-4-yl)-3-formyl-4-hydroxybenzamide]",15 to 60
11,"Nc1ncccc1-c1nc2ccc(-c3ccccc3)nc2n1-c1ccc(CN2CCC(NC(=O)c3ccc(O)c(C=O)c3)CC2)cc1 [Example 7, N-(1-(4-(2-(2-Aminopyridin-3-yl)-5-phenyl-3H-imidazo[4,5-b]pyridin-3-yl)benzyl)piperidin-4-yl)-3-formyl-4-hydroxybenzamide]",< 15
12,"Nc1ncccc1-c1nc2ccc(-c3ccccc3)nc2n1-c1ccc(CN2CC3CCC(C2)N3c2ccc(C=O)c(O)c2)cc1 [Example 111, 4-(3-(4-(2-(2-Aminopyridin-3-yl)-5-phenyl-3H-imidazo[4,5-b]pyridin-3-yl)benzyl)-3,8-diazabicyclo[3.2.1]octan-8-yl)-2-hydroxybenzaldehyde]",> 600
13,"Nc1ncccc1-c1nc2ccc(N3CCOCC3)nc2n1-c1ccc(CN2CCC(NC(=O)c3ccc(C=O)c(O)c3)CC2)cc1 [Example 53, N-(1-(4-(2-(2-Aminopyridin-3-yl)-5-morpholino-3H-imidazo[4,5-b]pyridin-3-yl)benzyl)piperidin-4-yl)-4-formyl-3-hydroxybenzamide]",60 to 600
14,"Nc1ncccc1-c1nc2ccc(-c3ccccc3)nc2n1-c1ccc(CN2CC[C@@H](NC(=O)c3ccc(C=O)c(O)c3)C2)cc1 [Example 64, (R)—N-(1-(4-(2-(2-Aminopyridin-3-yl)-5-phenyl-3H-imidazo[4,5-b]pyridin-3-yl)benzyl)pyrrolidin-3-yl)-4-formyl-3-hydroxybenzamide]",60 to 600
15,"Nc1ncccc1-c1nc2ccc(-c3ccccc3)nc2n1-c1ccc(CN2CCC3(CCN(c4ccc(C=O)c(O)c4)CC3)C2)cc1 [Example 85, 4-(2-(4-(2-(2-Aminopyridin-3-yl)-5-phenyl-3H-imidazo[4,5-b]pyridin-3-yl)benzyl)-2,8-diazaspiro[4.5]decan-8-yl)-2-hydroxybenzaldehyde]",60 to 600
16,"N#Cc1ccc(-c2ccc3nc(-c4cccnc4N)n(-c4ccc(CN5CCN(C(=O)c6ccc(C=O)c(O)c6)CC5)cc4)c3n2)cc1 [Example 39, 4-(2-(2-Aminopyridin-3-yl)-3-(4-((4-(4-formyl-3-hydroxybenzoyl)piperazin-1-yl)methyl)phenyl)-3H-imidazo[4,5-b]pyridin-5-yl)benzonitrile]",60 to 600
17,"Nc1ncccc1-c1nc2ccc(-c3ccccc3)nc2n1-c1ccc(CN2CCN(c3ccc(C=O)c(O)c3)C3(CC3)C2)cc1 [Example 108, 4-(7-(4-(2-(2-Aminopyridin-3-yl)-5-phenyl-3H-imidazo[4,5-b]pyridin-3-yl)benzyl)-4,7-diazaspiro[2.5]octan-4-yl)-2-hydroxybenzaldehyde]",60 to 600
18,"Nc1ncccc1-c1nc2ccc(-c3ccc(Cl)cc3)nc2n1-c1ccc(CN2CCN(C(=O)c3ccc(C=O)c(O)c3)CC2)cc1 [Example 148, 4-(4-(4-(2-(2-aminopyridin-3-yl)-5-(4-chlorophenyl)-3H-imidazo[4,5-b]pyridin-3-yl)benzyl)piperazine-1-carbonyl)-2-hydroxybenzaldehyde]",> 600
19,"Nc1ncccc1-c1nc2ccc(-c3ccccc3)nc2n1-c1ccc(CN2CCC3(CC2)CCN(c2ccc(C=O)c(O)c2)CC3)cc1 [Example 78, 4-(9-(4-(2-(2-Aminopyridin-3-yl)-5-phenyl-3H-imidazo[4,5-b]pyridin-3-yl)benzyl)-3,9-diazaspiro[5.5]undecan-3-yl)-2-hydroxybenzaldehyde]",60 to 600
20,"CN(Cc1ccc(-n2c(-c3cccnc3N)nc3ccc(-c4ccccc4)nc32)cc1)c1ccc(O)c(C=O)c1 [Example 18, 5-((4-(2-(2-Aminopyridin-3-yl)-5-phenyl-3H-imidazo[4,5-b]pyridin-3-yl)benzyl)(methyl)amino)-2-hydroxybenzaldehyde]",> 600
